These results are taken from patent US11840495B2, “Compositions and methods related to di-substituted bicyclo[2.2.1] heptanamine-containing compounds” (The Broad Institute, Inc., priority 2020, dated 2023).

Usually EC50 stands for the concentration giving half of the maximal effect. As a reminder, the IC50 is the concentration at which inhibition is half-maximal.

Each structure is given as a SMILES string. Counter-ions that a name gives are not always drawn. Like-named read-outs stand apart in the source and are kept apart here.

One data set relates to MUC1-fs. The experiment in a line: Immunofluorescence imaging of MUC1-fs in P cells (Example 2). As to conditions: for EC50: 48 hr incubation, MUC1-fs; for ECMax (%): DMSO = 0, JQ1 (250 nM) = −100% activity. Format: cell-based. The essentials: (§1)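 P cells were treated for 48 h with 5-dose (35–0.0035 μM) or 10-dose (16–0.0008 μM) series, in duplicate. Fixed cells were immunostained for MUC1-fs, MUC1-wt, GM130 and Hoechst nuclei. Per-cell cytoplasmic intensity was normalized with DMSO as 0% and JQ1 (250 nM) as −100%; cell number was normalized to DMSO.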

The subject of another data set is MUC1-wt. The experiment in a line: Immunofluorescence imaging of MUC1-wt in P cells (Example 2). Format: cell-based. As to conditions: for EC50: 48 hr incubation, MUC1-wt; for WT ECMax (%): DMSO = 0, JQ1 (250 nM) = −100% activity. The essentials: as §1
The subject of another data set is P cells. Nature of the data set: in vitro cellular potency of TA compounds determined in P cells. Format: cell-based.
Data set [1] in a line: Test agent stability on storage. Format: physicochemical. As to conditions: storage 4° C.; refrigerated and room temperature.
The subject of another data set is FS MUC1. The experiment in a line: Automated fixation/staining imaging assay, FS MUC1 spot cytoplasm (Example 3). Format: cell-based. As to conditions: 48 hour treatment time. An excerpt:
(§2) Prepared Renal Life Media by adding the supplements provided in the kit, substituting the FBS provided with Tet system approved FBS, and filtering the media (not including provided kit antibiotics). Thawed P6 vial(s) into T175 flasks 2 weeks prior to screening. Cells have to be passaged at least once after thaw before they can be used for screening. Hyperflasks can be used depending on the cell number needed. One confluent T175 flask should give at least 25 million cells. Cells should not be split beyond 1:2-1:4 and should only be trypsinized 1×/week. Cells must be spun down after each typsinization. Flasks must be confluent at time of plating. Flasks were incubated at 37° C., 5% CO2, 98% humidity. Cells can only be cultured for up to 10 passages before a new vial will need to be thawed.
(§3) • Day 1: Cells are plated. • Day 2: Compounds are transferred into assay plates with Echo (24 hours post-seeding) • Day 3: Begin preparing reagents for fixation and staining. • Day 4: Plates are fixed and stained (48 hour treatment time) on automated system and subsequently imaged on Opera Phenix. • Day 5: Data analysis and reporting is performed. Plate Preparation:
(§4) Calculated cell number needed and media volume needed for the run (MAX 20 plates/run). Cells were seeded into Synthemax-coated 384-well Cell Carrier plates at a density of 12,000 cells/well in 40 ul of Renal Life Media/well. Calculated for an extra 2-3 plate volumes to account for volume needed to fill the Combi cassette lines and left dead volume of cell suspension. (20 ul added with Combi after compound addition for total 60 ul assay volume, due to volume constraints of Echo transfer process). Trypsinized cells with 3 ml/T175 flask of TrypLE™ Express Enzyme 1X. Then spun down cells and resuspend in 10 ml media. Counted the cells using Nexcelom Cellometer K2. Prepared a mixture of 20 ul cell suspension/20 ul Cellometer AOPI Stain (#CS2-0106) and then add 20 ul of the 2 fold diluted mixture onto a Cellometer slide. Counted the cells by using the Dual Stain option and following the prompts. Recorded the live cell density, viability, and current passage number and date in notebook. Used the live cell density in calculating how to prepare the cell seeding suspension. Mixed the cell suspension thoroughly but gently. Once Combi cassette cleaned and cell suspension was made, dispensed 40 ul of cell suspension per well into the Synthemax-coated Cell Carrier assay plates. Immediately after seeding, stored the assay plates in the Liconic Incubator on the enclosed system in the 3100 automation lab, spaced plates out every other slot in stackers to maximize air flow.
(§5) Generated Arxspan Run ID to record compound transfer in CBIP. Spun down compound plates and assay plates 2000 RPM 10 sec. Load assay plates into Echo system incubator. Coordinated plate locations and record RUN ID with automation team member. Ran protocol for 100 nl transfer according to designated plate layout/template. When run was completed, added 20 ul of media/well for all assay plates with Combi in hood in Tissue culture room. Returned plates to the incubator in the enclosed system for 48 hour treatment time.
(§6) Heated up solution (100° C. on stir plate) and dissolved Roche Blocking reagent by stirring. The resulting solution was cloudy. Stored at 4° C. and used within one week or froze aliquots at −20° C. Combi 4: 1° Antibody Cocktail: Prepared the day of experiment. Swirled to mix. […] Prepared solution in Corning 250 ml conical flask and covered with tinfoil to protect from light.
(§7) Combi 5: 2° Antibody Cocktail: Prepared the day of experiment. Swirlrf to mix. […] Prepared solution in Corning 250 ml conical flask and covered with tinfoil to protect from light.
(§8) Removed media using BioTek plate washer. (PEKASP62) Moved plates to Combi. Combi 1. Dispensed 40 μl of 4% PFA (Combi on MEDIUM Speed). Incubated plates 20 minutes. Washed two times on BioTek plate washer. (PEK26X2)
(§9) Moved plates to Combi. Combi 2. […]

The subject of the next data set is NUCB1. Nature of the data set: Automated fixation/staining imaging assay, NUCB1 intensity (Example 3). Format: cell-based. As to conditions: 48 hour treatment time.
From the text: as §2, §3, §4, §5, §6, §7, §8, §9

[2] abbreviates: 48 hr, DMSO = 0, JQ1 = −100% activity, in %.

As to `CC[C@]1(C)[C@@H]2CC[C@@H](C2)[C@@H]1N` (single isomer, unassigned) [Compound 203-P2], the EC50 in the data set on MUC1-fs (read-out: EC50(Spot)) was determined as 40 nM; with MUC1-wt (read-out: WT EC50 (Cytoplasm)), 2600 nM; in the data set with P cells, 46 nM. Besides, the “ECMax (%)” value with MUC1-fs (48 hr) was −75%. Besides, in the data set on MUC1-wt (48 hr), the “WT ECMax (%)” value was 95%. The Stability/expiration date entry in data set [1] is “Stable when refrigerated and at room temperature for few hours”.
Take `CC1(C)[C@H]2CC[C@H](C2)[C@@]1(C)N` (racemic) [Compound 242, rac-2,3,3-trimethylbicyclo[2.2.1]heptan-2-amine hydrochloride]: the results for the EC50 in the data set with MUC1-fs (read-out: EC50), in the data set on MUC1-wt (read-out: WT EC50) and in the data set with NUCB1 were 2430 nM, above 16000 nM and 4930 nM, respectively. This compound registered an Emax in the data set with MUC1-fs (setting [2]) of −67.4. Moreover, the “WT EMax” value with MUC1-wt (setting [2]) is 27.7. In the data set on FS MUC1, this compound had an IC50 of 2430 nM. In addition, the “FS MUC1 Spot Cytoplasm Avg Emax” value with FS MUC1 (in % (unit assumed)) is recorded as −67.4. In addition, in the data set on NUCB1 (in % (unit assumed)), the “NUCB1 Intensity Avg Emax” value is recorded as −85.46.
Regarding `CC[C@@]1(C)[C@@H]2CC[C@@H](C2)[C@@H]1N` (single isomer, unassigned) [Compound 202-P2], the EC50 was 20 nM in the data set with MUC1-fs (read-out: EC50(Spot)), above 1800 nM in the data set with MUC1-wt (read-out: WT EC50 (Cytoplasm)) and 14 nM in the data set on P cells. Also, the “ECMax (%)” value in the data set with MUC1-fs (48 hr) was −76%. Moreover, in the data set with MUC1-wt (48 hr), the “WT ECMax (%)” value is recorded as around 175%. For the same compound, the Stability/expiration date result in data set [1] is “Stable when refrigerated and at room temperature for few hours”.
For the compound `CC[C@]1(C)[C@H]2CC[C@H](C2)[C@H]1N` (single isomer, unassigned) [Compound 202-P1], the EC50 with MUC1-fs (read-out: EC50(Spot)) stood at 40 nM; in the data set with MUC1-wt (read-out: WT EC50 (Cytoplasm)), 4040 nM; in the data set on P cells it was 26 nM. In addition, the “ECMax (%)” value in the data set with MUC1-fs (48 hr) is on record as −77.14%. Further, in the data set on MUC1-wt (48 hr), the “WT ECMax (%)” value is on record as around 150%. Further, the Stability/expiration date entry in data set [1] is “Stable when refrigerated and at room temperature for few hours”.
As to `CC[C@@]1(C)[C@H]2CC[C@H](C2)[C@H]1N` (single isomer, unassigned) [Compound 203-P1], the EC50 in the data set with MUC1-fs (read-out: EC50(Spot)) came to 50 nM; in the data set with MUC1-wt (read-out: WT EC50 (Cytoplasm)), 2700 nM; in the data set with P cells, 40 nM. Moreover, the “ECMax (%)” value in the data set with MUC1-fs (48 hr) is −76.02%. The “WT ECMax (%)” value in the data set with MUC1-wt (48 hr) was 91.48%. The Stability/expiration date entry in data set [1] was “Stable when refrigerated and at room temperature for few hours”.
